Laboratory results: PubChem BioAssay (NCI)
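Interpolation was linear, between the two tested concentrations surrounding the appropriate level; five concentrations were tested over 48 hours in 96-well plates. TGI is the concentration that stops growth completely.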

How the values were obtained:
Assay in all cases: NCI-60 cell line screen, 48 h
[1] = system: 786-0 renal
[2] = system: A498 renal
[3] = system: A549 NSCLC
[4] = system: ACHN renal
[5] = system: BT-549 breast
[6] = system: CAKI-1 renal
[7] = system: CCRF-CEM leukemia
[8] = system: COLO 205 colon
[9] = system: EKVX NSCLC
[10] = system: HCC-2998 colon
[11] = system: HCT-116 colon
[12] = system: HCT-15 colon
[13] = system: HL-60(TB) leukemia
[14] = system: HOP-62 NSCLC
[15] = system: HS 578T breast
[16] = system: HT29 colon
[17] = system: IGROV1 ovarian
[18] = system: K-562 leukemia
[19] = system: KM12 colon
[20] = system: LOX IMVI melanoma
[21] = system: M14 melanoma
[22] = system: MALME-3M melanoma
[23] = system: MCF7 breast
[24] = system: MDA-MB-231 breast
[25] = system: MDA-MB-435
[26] = system: MDA-N
[27] = system: MOLT-4 leukemia
[28] = system: NCI-H226 lung
[29] = system: NCI-H23 lung
[30] = system: NCI-H460 lung
[31] = system: NCI-H522 lung
[32] = system: NCI/ADR-RES ovarian
[33] = system: OVCAR-4 ovarian
[34] = system: OVCAR-5 ovarian
[35] = system: OVCAR-8 ovarian
[36] = system: PC-3 prostate
[37] = system: RPMI-8226 leukemia
[38] = system: RXF 393 renal
[39] = system: SF-268 CNS
[40] = system: SF-295 CNS
[41] = system: SF-539 CNS
[42] = system: SK-MEL-2 melanoma
[43] = system: SK-MEL-28 melanoma
[44] = system: SK-MEL-5 melanoma
[45] = system: SK-OV-3 ovarian
[46] = system: SN12C renal
[47] = system: SNB-19 CNS
[48] = system: SNB-75 CNS
[49] = system: SR leukemia
[50] = system: SW-620 colon
[51] = system: T-47D breast
[52] = system: TK-10 renal
[53] = system: U251 CNS
[54] = system: UACC-257 melanoma
[55] = system: UACC-62 melanoma
[56] = system: UO-31 renal

Work on CN(C)CCn1nc2c3c(c(C(=O)NCCCN(C)CCCNC(=O)c4ccc5c6c(nn5CCN(C)C)-c5ccccc5Nc46)ccc31)Nc1ccccc1-2 yielded a TGI [1] of 1280 nM, a TGI [2] of 623 nM and a TGI [3] of 332 nM. For the same molecule, the TGI [4] was 6260 nM, the TGI [5] was 1650 nM and the TGI [6] was 3300 nM. It also gave a TGI [7] of 2630 nM, a TGI [8] of 227 nM and a TGI [9] of 505 nM. For the same molecule, the TGI [10] was 245 nM, the TGI [11] was 525 nM and the TGI [12] was 16600 nM. The TGI [13] was 944 nM, the TGI [14] was 574 nM and the TGI [15] was 1860 nM. It also gave a TGI [16] of 561 nM, a TGI [17] of 15600 nM and a TGI [18] of 1890 nM. The TGI [19] was 1330 nM, the TGI [20] was 1280 nM and the TGI [21] was 1580 nM. For the same molecule, the TGI [22] was 280 nM, the TGI [23] was 582 nM and the TGI [24] was 518 nM. For the same molecule, the TGI [25] was 415 nM, the TGI [26] was 318 nM and the TGI [27] was 1580 nM. For the same molecule, the TGI [28] was 217 nM, the TGI [29] was 617 nM and the TGI [30] was 432 nM. The TGI [31] was 117 nM, the TGI [32] was > 71200 nM and the TGI [33] was 658 nM. For the same molecule, the TGI [34] was 751 nM, the TGI [35] was 2970 nM and the TGI [36] was 834 nM. For the same molecule, the TGI [37] was 1370 nM, the TGI [38] was 1450 nM and the TGI [39] was 549 nM. It also gave a TGI [40] of 2080 nM, a TGI [41] of 2190 nM and a TGI [42] of 243 nM. It also gave a TGI [43] of 1150 nM, a TGI [44] of 1460 nM and a TGI [45] of 407 nM. It also gave a TGI [46] of 708 nM, a TGI [47] of 748 nM and a TGI [48] of 272 nM. It also gave a TGI [49] of 1200 nM, a TGI [50] of 3490 nM and a TGI [51] of 10500 nM. It also gave a TGI [52] of 3320 nM, a TGI [53] of 452 nM and a TGI [54] of 1090 nM. For the same molecule, the TGI [55] was 424 nM and the TGI [56] was 3220 nM.
